# Laboratory results taken from ChEMBL document CHEMBL1201862, “PubChem BioAssay data set” (2004).
#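 All cell lines were grown in 96-well plates and treated with compound for 48 hours. GI50 is the concentration that inhibits growth by half.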 Activity calls are given as the source filed them. No stated cut-off is given here; in the data, active = GI50 up to about 1.1 µM and inactive = higher.
# Tests used:
# Assay in all cases: NCI-60 cell line screen, 48 h
# [1] = tested on: OVCAR-3
# [2] = tested on: SK-MEL-5
# [3] = tested on: HCT-116
# [4] = tested on: HT-29
# [5] = tested on: TK-10
# [6] = tested on: EKVX
# [7] = tested on: KM12
# [8] = tested on: NCI-H23
# [9] = tested on: SNB-78
# [10] = tested on: M19-MEL
# [11] = tested on: LXFL 529
# [12] = tested on: HL-60
# [13] = tested on: UACC-257
# [14] = tested on: KM-20L2
# [15] = tested on: COLO 205
# [16] = tested on: SF-295
# [17] = tested on: NCI-H460
# [18] = tested on: 786-0
# [19] = tested on: DMS-114
# [20] = tested on: SR
# [21] = tested on: SW-620
# [22] = tested on: K562
# [23] = tested on: A549
# [24] = tested on: SK-MEL-2
# [25] = tested on: NCI-H522
# [26] = tested on: OVCAR-5
# [27] = tested on: Malme-3M
# [28] = tested on: CAKI-1
# [29] = tested on: SK-MEL-28
# [30] = tested on: ACHN
# [31] = tested on: M14
# [32] = tested on: MOLT-4
# [33] = tested on: UO-31
# [34] = tested on: SNB-75
# [35] = tested on: OVCAR-4
# [36] = tested on: RPMI-8226
# [37] = tested on: OVCAR-8
# [38] = tested on: SN12C
# [39] = tested on: CCRF-CEM
# [40] = tested on: U-251
# [41] = tested on: DMS-273
# [42] = tested on: LOX IMVI
# [43] = tested on: HCT-15
# [44] = tested on: RXF 393
# [45] = tested on: HOP-62
# [46] = tested on: SNB-19
# [47] = tested on: SF-539
# [48] = tested on: SF-268
# [49] = tested on: A498
# [50] = tested on: XF498
# [51] = tested on: NCI-H226
# [52] = tested on: NCI/ADR-RES
# [53] = tested on: HOP-18
# [54] = tested on: MCF7
# [55] = tested on: UACC-62
# [56] = tested on: DLD-1
# [57] = tested on: IGROV-1
# [58] = tested on: HOP-92
# [59] = tested on: SK-OV-3
# [60] = tested on: HCC 2998
smiles,measurement,setting,value
COc1cc(-c2ccc(NC(=O)SCCC(=O)O)cc2OC)ccc1NC(=O)SCCC(=O)O,GI50,[1],> 100 µM (inactive)
same,GI50,[2],> 100 µM (inactive)
same,GI50,[3],> 100 µM (inactive)
same,GI50,[4],> 100 µM (inactive)
same,GI50,[5],> 100 µM (inactive)
same,GI50,[6],> 100 µM (inactive)
same,GI50,[7],> 100 µM (inactive)
same,GI50,[8],> 100 µM (inactive)
same,GI50,[9],> 100 µM (inactive)
same,GI50,[10],> 100 µM (inactive)
same,GI50,[11],> 100 µM (inactive)
same,GI50,[12],24.9 µM (inactive)
same,GI50,[13],> 100 µM (inactive)
same,GI50,[14],> 100 µM (inactive)
same,GI50,[15],> 100 µM (inactive)
same,GI50,[16],> 100 µM (inactive)
same,GI50,[17],> 100 µM (inactive)
same,GI50,[18],> 100 µM (inactive)
same,GI50,[19],> 100 µM (inactive)
same,GI50,[20],> 100 µM (inactive)
same,GI50,[21],> 100 µM (inactive)
same,GI50,[22],> 100 µM (inactive)
same,GI50,[23],> 100 µM (inactive)
same,GI50,[24],> 100 µM (inactive)
same,GI50,[25],> 100 µM (inactive)
same,GI50,[26],> 100 µM (inactive)
same,GI50,[27],> 100 µM (inactive)
same,GI50,[28],> 100 µM (inactive)
same,GI50,[29],> 100 µM (inactive)
same,GI50,[30],> 100 µM (inactive)
same,GI50,[31],> 100 µM (inactive)
same,GI50,[32],> 100 µM (inactive)
same,GI50,[33],> 100 µM (inactive)
same,GI50,[34],65.3 µM (inactive)
same,GI50,[35],> 100 µM (inactive)
same,GI50,[36],> 100 µM (inactive)
same,GI50,[37],> 100 µM (inactive)
same,GI50,[38],> 100 µM (inactive)
same,GI50,[39],98.2 µM (inactive)
same,GI50,[40],> 100 µM (inactive)
same,GI50,[41],> 100 µM (inactive)
same,GI50,[42],> 100 µM (inactive)
same,GI50,[43],> 100 µM
same,GI50,[44],> 100 µM (inactive)
same,GI50,[45],> 100 µM (inactive)
same,GI50,[46],> 100 µM (inactive)
same,GI50,[47],> 100 µM (inactive)
same,GI50,[48],> 100 µM (inactive)
same,GI50,[49],> 100 µM (inactive)
same,GI50,[50],74.3 µM (inactive)
same,GI50,[51],> 100 µM (inactive)
c1ccc2c3c(ccc2c1)-c1[nH]ncc1CCO3,GI50,[1],27.7 µM (inactive)
same,GI50,[2],> 46.9 µM (inactive)
same,GI50,[3],32.4 µM (inactive)
same,GI50,[4],32.5 µM (inactive)
same,GI50,[6],13.6 µM (inactive)
same,GI50,[7],37.2 µM (inactive)
same,GI50,[52],38.2 µM (inactive)
same,GI50,[8],25.2 µM (inactive)
same,GI50,[9],29.2 µM (inactive)
same,GI50,[10],34 µM (inactive)
same,GI50,[53],61.4 µM (inactive)
same,GI50,[12],14.6 µM (inactive)
same,GI50,[13],27.7 µM (inactive)
same,GI50,[14],34.5 µM (inactive)
same,GI50,[54],32.9 µM (inactive)
same,GI50,[55],29.9 µM (inactive)
same,GI50,[56],34.8 µM (inactive)
same,GI50,[15],37.2 µM (inactive)
same,GI50,[16],28.4 µM (inactive)
same,GI50,[57],> 52 µM (inactive)
same,GI50,[17],25.6 µM (inactive)
same,GI50,[19],32.7 µM (inactive)
same,GI50,[21],37.8 µM (inactive)
same,GI50,[22],32.8 µM (inactive)
same,GI50,[58],27.5 µM (inactive)
same,GI50,[23],37 µM (inactive)
same,GI50,[24],36.1 µM (inactive)
same,GI50,[25],21.8 µM (inactive)
same,GI50,[26],25.8 µM (inactive)
same,GI50,[27],45.7 µM (inactive)
same,GI50,[28],33.4 µM (inactive)
same,GI50,[29],50.8 µM (inactive)
same,GI50,[32],20.1 µM (inactive)
same,GI50,[33],25.6 µM (inactive)
same,GI50,[34],27.5 µM (inactive)
same,GI50,[35],29.7 µM (inactive)
same,GI50,[37],34.4 µM (inactive)
same,GI50,[38],29.2 µM (inactive)
same,GI50,[39],32 µM (inactive)
same,GI50,[40],18.4 µM (inactive)
same,GI50,[41],40.5 µM (inactive)
same,GI50,[42],33.1 µM (inactive)
same,GI50,[43],20.5 µM
same,GI50,[44],33.3 µM (inactive)
same,GI50,[59],35.8 µM (inactive)
same,GI50,[45],30.6 µM (inactive)
same,GI50,[46],47.1 µM (inactive)
same,GI50,[47],25 µM (inactive)
same,GI50,[48],37.8 µM (inactive)
same,GI50,[60],35.6 µM (inactive)
same,GI50,[49],> 56 µM (inactive)
same,GI50,[50],32.4 µM (inactive)
Cn1cnc([N+](=O)[O-])c1Sc1nccn1-c1ccccc1,GI50,[1],50.5 µM (inactive)
same,GI50,[2],69.2 µM (inactive)
same,GI50,[3],38 µM (inactive)
same,GI50,[4],61.1 µM (inactive)
same,GI50,[5],> 100 µM (inactive)
same,GI50,[6],44.7 µM (inactive)
same,GI50,[7],> 100 µM (inactive)
same,GI50,[8],29.9 µM (inactive)
same,GI50,[9],26.3 µM (inactive)
same,GI50,[10],51.8 µM (inactive)
same,GI50,[53],8.85 µM (inactive)
same,GI50,[13],37.6 µM (inactive)
same,GI50,[14],> 100 µM (inactive)
same,GI50,[55],35.2 µM (inactive)
same,GI50,[56],33.3 µM (inactive)
same,GI50,[15],33.9 µM (inactive)
same,GI50,[16],> 100 µM (inactive)
same,GI50,[57],43.1 µM (inactive)
same,GI50,[17],41.4 µM (inactive)
same,GI50,[18],> 100 µM (inactive)
same,GI50,[19],29.4 µM (inactive)
same,GI50,[20],21.2 µM (inactive)
same,GI50,[21],42.9 µM (inactive)
same,GI50,[22],52.4 µM (inactive)
same,GI50,[58],22.5 µM (inactive)
same,GI50,[23],> 100 µM (inactive)
same,GI50,[24],21.4 µM (inactive)
same,GI50,[25],11.6 µM (inactive)
same,GI50,[26],> 100 µM (inactive)
same,GI50,[27],17.5 µM (inactive)
same,GI50,[28],97.9 µM (inactive)
same,GI50,[29],37.8 µM (inactive)
same,GI50,[30],47.6 µM (inactive)
same,GI50,[31],44.9 µM (inactive)
same,GI50,[32],21.5 µM (inactive)
same,GI50,[33],22.3 µM (inactive)
same,GI50,[34],71.9 µM (inactive)
same,GI50,[35],44.6 µM (inactive)
same,GI50,[36],51.3 µM (inactive)
same,GI50,[37],43.1 µM (inactive)
same,GI50,[38],42.3 µM (inactive)
same,GI50,[39],36.3 µM (inactive)
same,GI50,[40],49.8 µM (inactive)
same,GI50,[41],63.5 µM (inactive)
same,GI50,[42],16.8 µM (inactive)
same,GI50,[59],> 100 µM (inactive)
same,GI50,[45],> 100 µM (inactive)
same,GI50,[46],> 100 µM (inactive)
same,GI50,[47],68.2 µM (inactive)
same,GI50,[48],66.5 µM (inactive)
same,GI50,[60],> 100 µM (inactive)
same,GI50,[49],> 100 µM (inactive)
same,GI50,[50],31.1 µM (inactive)
same,GI50,[51],33.7 µM (inactive)
